Results: PMC5791972 (PLoS ONE, 2018)
Read-outs that look alike come from different tables or passages of the source.

Assays:
BLT1 (LTB4) (h) = target: T1, BLT1 (LTB4) (h) (Homo sapiens, UniProt Q15722); type: binding; conditions: 1.0E-06 M
T1 construct: host or cells: CHO cells

UT (h) = target: T2, UT (h) (Homo sapiens, UniProt Q9UKP6); type: binding
T2 construct: host or cells: CHO cells
T2 sequence (Q9UKP6 1-389): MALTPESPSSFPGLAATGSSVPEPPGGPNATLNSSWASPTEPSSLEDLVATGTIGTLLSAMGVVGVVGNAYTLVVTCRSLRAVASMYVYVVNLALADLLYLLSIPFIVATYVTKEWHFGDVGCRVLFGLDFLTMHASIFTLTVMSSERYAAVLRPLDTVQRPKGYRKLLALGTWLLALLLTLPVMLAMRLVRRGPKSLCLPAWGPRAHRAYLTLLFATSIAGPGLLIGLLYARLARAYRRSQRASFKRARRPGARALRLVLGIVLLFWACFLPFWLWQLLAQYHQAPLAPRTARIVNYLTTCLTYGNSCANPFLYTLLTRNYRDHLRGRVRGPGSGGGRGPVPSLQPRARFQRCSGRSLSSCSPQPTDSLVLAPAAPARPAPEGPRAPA

[1] = test system: Ca2+ channel (L, verapamil site) (phenylalkylamine); type: binding, rat; conditions: 1.0E-06 M
M2 (h) = target: T3, M2 (h) (Homo sapiens, UniProt P08172); test: biochemical
T3 sequence (P08172 1-466): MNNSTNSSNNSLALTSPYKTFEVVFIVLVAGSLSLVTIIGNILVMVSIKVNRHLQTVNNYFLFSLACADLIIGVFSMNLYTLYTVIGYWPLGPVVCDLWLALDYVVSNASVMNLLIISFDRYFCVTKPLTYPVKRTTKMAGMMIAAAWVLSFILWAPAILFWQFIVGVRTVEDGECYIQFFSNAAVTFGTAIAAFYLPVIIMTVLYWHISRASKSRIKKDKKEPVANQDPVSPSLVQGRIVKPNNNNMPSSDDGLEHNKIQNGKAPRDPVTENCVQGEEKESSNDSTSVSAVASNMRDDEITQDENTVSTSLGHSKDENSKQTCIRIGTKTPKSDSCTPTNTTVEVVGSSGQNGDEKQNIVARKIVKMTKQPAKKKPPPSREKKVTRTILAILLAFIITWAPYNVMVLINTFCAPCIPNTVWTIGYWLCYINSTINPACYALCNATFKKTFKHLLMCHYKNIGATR

T1 sequence (Q15722 whole entry): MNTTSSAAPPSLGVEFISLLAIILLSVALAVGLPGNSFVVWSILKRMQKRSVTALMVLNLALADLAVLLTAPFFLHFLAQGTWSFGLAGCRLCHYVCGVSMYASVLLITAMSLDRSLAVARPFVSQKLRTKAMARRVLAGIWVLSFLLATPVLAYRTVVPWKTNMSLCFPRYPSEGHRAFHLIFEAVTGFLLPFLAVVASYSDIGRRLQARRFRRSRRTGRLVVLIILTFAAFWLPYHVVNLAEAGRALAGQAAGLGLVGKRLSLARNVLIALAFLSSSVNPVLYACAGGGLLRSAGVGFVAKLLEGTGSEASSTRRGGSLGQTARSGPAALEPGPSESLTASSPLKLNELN

Compound `Cn1c(=O)n(CCCO)c(=O)c2c1nc(Oc1cccc(OC(F)(F)F)c1)n2Cc1ccc(Cl)cc1` [HC-608] has an inhibition at 1 µM (BLT1 (LTB4) (h); read-out: % Inhibition 1st) of -2.9%, an inhibition at 1 µM (BLT1 (LTB4) (h); read-out: % Inhibition 2nd) of 13.4% and an inhibition at 1 µM (BLT1 (LTB4) (h); read-out: % Inhibition Mean) of 5.3%. For the same compound, the inhibition at 1 µM (UT (h); 1.0E-06 M, read-out: % Inhibition 2nd) was 7%, the inhibition at 1 µM (UT (h); 1.0E-06 M, read-out: % Inhibition Mean) was 9.3% and the inhibition at 1 µM (UT (h); read-out: % Inhibition 1st) was 11.5%. For the same compound, the “% Inhibition 1st” value [1] was 2.3%, the “% Inhibition 2nd” value [1] was 14.5% and the “% Inhibition Mean” value [1] was 8.4%. It also gave an inhibition at 1 µM (M2 (h); read-out: % Inhibition 1st) of -15.9%, an inhibition at 1 µM (M2 (h); read-out: % Inhibition 2nd) of -14.2% and an inhibition at 1 µM (M2 (h); read-out: % Inhibition Mean) of -15%.
